Consider 34 molecules from patent US7834024B2, “Compositions and methods for inhibition of the JAK pathway” (Rigel Pharmaceuticals, Inc., priority 2007, dated 2010).

In one assay the test system is Ramos B-Cell Line Stimulated with IL-4 (JAK-1 and JAK-3 / Stat-6, CD23). The experiment in a line: Assay for Ramos B-Cell Line Stimulated with IL-4 (CD23 upregulation, FACS). Type of assay: cell-based. The note with it: Homo sapiens, Ramos, human Ramos B cells, compound 1 hour, IL-4 50 units/mL for 20-24 hours, anti-CD23-PE FACS; read-out: Example 2 (IC50). The gist of the method:
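Human Ramos B cells (5×10^4 per point, RPMI with 5% serum) pre-incubated 1 hour at 37° C with compound or DMSO, then stimulated with IL-4 at 50 units/mL final for 20-24 hours. CD23 upregulation measured by flow cytometry.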
In general, IC50 refers to the midpoint of a concentration-inhibition curve. Turning to `Cc1noc(COc2ccc(Nc3nc(Nc4cccc(C#N)c4)ncc3F)c(C)c2)n1` [Compound I-116, N2-(3-Cyanophenyl)-5-fluoro-N4-[2-methyl-4-((3-methyl-1,2,4-oxadiazol-5-yl)methoxy)phenyl]-2,4-pyrimidinediamine], the IC50 came out at 1.44 µM.
As to `NC(=O)COc1cccc(Nc2nc(Nc3cccc(C(N)=O)c3)ncc2F)c1` [Compound I-33, N4-(3-Aminocarbonylmethoxyphenyl)-N2-(3-aminocarbonylphenyl)-5-fluoro-2,4-pyrimidinediamine], the IC50 came to 3.05 µM.
The same measure, in the same setting: next, `N#CCOc1ccc(Nc2nc(Nc3cccc(C(N)=O)c3)ncc2F)cc1` [Compound I-28, N2-(3-Aminocarbonylphenyl)-N4-(4-cyanomethoxyphenyl)-5-fluoro-2,4-pyrimidinediamine]: 0.0651 µM.
Still for that read-out and setting: next, `CC(C)(C#N)Oc1ccc(Nc2nc(Nc3ccc(C(N)=O)cc3)ncc2F)cc1` [Compound I-84, N2-(4-Aminocarbonylphenyl)-N4-[4-(1-cyano-1-methylethoxy)phenyl]-5-fluoro-2,4-pyrimidinediamine]: 0.148 µM; `Cc1noc(CCc2ccc(Nc3nc(Nc4ccc(CCC#N)cc4)ncc3F)cc2)n1` [Compound I-121, 5-Fluoro-N4-[4-(2-(3-methyl-1,2,4-oxadiazol-5-yl)ethyl)phenyl]-N2-[4-(2-cyanoethyl)phenyl]-2,4-pyrimidinediamine]: 2.14 µM; `Cc1noc(Cc2ccc(Nc3nc(Nc4ccc(CC#N)cc4)ncc3F)cc2)n1` [Compound I-113, N2-(4-Cyanomethylphenyl)-5-fluoro-N4-[4-((3-methyl-1,2,4-oxadiazol-5-yl)methyl)phenyl]-2,4-pyrimidinediamine]: 0.149 µM.
Still for that read-out and setting: the same measure for `COc1ccc(Nc2nc(Nc3ccc(C(=O)Nc4ccn(C)n4)cc3)ncc2F)cc1Cl` [Compound I-2, N4-(3-Chloro-4-methoxyphenyl)-5-fluoro-N2-[4-((1-methyl-1H-pyrazol-3-yl)aminocarbonyl)phenyl]-2,4-pyrimidinediamine]: 0.317 µM; for `Cc1cnc(Nc2ccc(C(N)=O)cc2)nc1Nc1ccc2c(c1)CCC(=O)N2C` [II-29, N2-(4-Aminocarbonylphenyl)-5-methyl-N4-(1-methyl-2-oxo-1,2,3,4-tetrahydroquinolin-6-yl)-2,4-pyrimidinediamine]: 0.609 µM; for `CCc1cc(Nc2ncc(F)c(Nc3ccc(OCC#N)c(Cl)c3)n2)cc(C#N)c1Cl` [Compound I-108, N2-(4-Chloro-3-cyano-5-ethylphenyl)-N4-(3-chloro-4-cyanomethoxyphenyl)-5-fluoro-2,4-pyrimidinediamine]: 1.8 µM.
In the case of `CC(C#N)Oc1ccc(Nc2nc(Nc3ccc(C(N)=O)cc3)ncc2F)cc1` (stereo not shown) [Compound I-81, N2-(4-Aminocarbonylphenyl)-N4-[4-(1-cyanoethoxy)phenyl]-5-fluoro-2,4-pyrimidinediamine], the IC50 is 0.0529 µM.
`COC(=O)c1ccc(Nc2nc(Nc3cccc(C(N)=O)c3)ncc2F)s1` [Compound I-123, N2-(3-Aminocarbonylphenyl)-5-fluoro-N4-(5-methoxycarbonylthiophen-2-yl)-2,4-pyrimidinediamine]: the IC50 was determined as 1.06 µM.
The same measure, in the same setting: the same measure for `CN1CCOc2cc(Nc3nc(Nc4ccc(C(N)=O)cc4)ncc3F)ccc21` [II-3, N2-(4-Aminocarbonylphenyl)-N4-(3,4-dihydro-4-methyl-2H-benzo[1,4]oxazin-7-yl)-5-fluoro-2,4-pyrimidinediamine]: 0.0629 µM; for `N#CCOc1cccc(Nc2nc(Nc3ccc(C#N)cc3)ncc2F)c1` [Compound I-46, N4-(3-Cyanomethoxyphenyl)-N2-(4-cyanophenyl)-5-fluoro-2,4-pyrimidinediamine]: 1.47 µM; for `COc1cc(Nc2ncc(F)c(Nc3ccc4c(c3)NC(=O)C(C)(C)O4)n2)cc(OCC#N)c1OC` [II-15, N2-(3-Cyanomethoxy-4,5-dimethoxyphenyl)-N4-(2,2-dimethyl-3-oxo-4H-benzo[1,4]oxazin-6-yl)-5-fluoro-2,4-pyrimidinediamine]: 0.0693 µM.
The same measure, in the same setting: the same measure for `COc1cc(Nc2nc(Nc3ccc4oc(C(=O)NCCN5CCOCC5)cc4c3)ncc2F)ccc1Cl` [III-2, N4-(4-Chloro-3-methoxyphenyl)-5-fluoro-N2-[2-(2-(N-morpholinyl)ethylaminocarbonyl)benzofuran-5-yl]-2,4-pyrimidinediamine]: 0.144 µM; for `Cc1cc(Nc2nc(Nc3ccc(CC#N)cc3)ncc2F)ccc1OCC#N` [Compound I-86, N4-(4-Cyanomethoxy-3-methylphenyl)-N2-(4-cyanomethylphenyl)-5-fluoro-2,4-pyrimidinediamine]: 0.142 µM; for `N#Cc1cccc(Nc2ncc(F)c(Nc3ccc(OCC(N)=O)cc3)n2)c1` [Compound I-22, N4-(4-Aminocarbonylmethoxyphenyl)-N2-(3-cyanophenyl)-5-fluoro-2,4-pyrimidinediamine]: 0.886 µM.
The same measure, in the same setting: next, `CNC(=O)COc1cccc(Nc2ncc(N)c(Nc3ccc4cn[nH]c4c3)n2)c1` [Compound V-4]: 1.97 µM; `CNC(=O)c1cc(Nc2ncc(F)c(Nc3cccc(OCC#N)c3)n2)ccc1N1CCN(C)CC1` [Compound I-55, N4-(3-Cyanomethoxyphenyl)-5-fluoro-N2-[3-methylaminocarbonyl-4-(4-methylpiperazin-1-yl)phenyl]-2,4-pyrimidinediamine]: 0.0384 µM; `CNC(=O)COc1cc(Nc2ncc(F)c(Nc3ccc4c(c3)NC(=O)C(F)(F)O4)n2)ccc1OC` [II-34, N4-(2,2-Difluoro-3-oxo-4H-benzo[1,4]oxazin-6-yl)-5-fluoro-N2-[4-methoxy-3-(N-methylaminocarbonylmethoxy)phenyl]-2,4-pyrimidinediamine]: 0.391 µM.
`CN1CCN(c2ccc(Nc3ncc(F)c(Nc4cccc(OCC#N)c4)n3)cc2C(N)=O)CC1` [Compound I-54, N2-[3-Aminocarbonyl-4-(4-methylpiperazin-1-yl)phenyl]-N4-(3-cyanomethoxyphenyl)-5-fluoro-2,4-pyrimidinediamine]: the IC50 was 0.0191 µM.

The same assay, now with this note: human Ramos B cells, compound 1 hour, IL-4 50 units/mL for 20-24 hours, anti-CD23-PE FACS; read-out: Example 2 (IC50).
For the molecule “N2-(4-Chloro-3-cyano-5-ethyl phenyl)-N4-(2,2-dimethyl-3-oxo-4H-5-pyrido[1,4]oxazin-6-yl)-5-fluoro-2,4-pyrimidinediamine [II-26]”, the half-inhibitory concentration (IC50) came out at 16.1 µM.
Turning to `CCN(CC)CCNC(=O)c1ccc(Nc2ncc(F)c(Nc3cccc(OCc4nc(C)no4)c3)n2)cc1` [Compound I-125, N2-[4-(2-(N,N-Diethylamino)ethylaminocarbonyl)phenyl]-5-fluoro-N4-[3-(3-methyl-1,2,4-oxadiazol-5-yl)methyleneoxyphenyl]-2,4-pyrimidinediamine], the IC50 was 0.103 µM.
Still for that read-out and setting: next, `Cc1cnc(Nc2cccc(C(N)=O)c2)nc1Nc1ccc2c(n1)NC(=O)C(C)(C)O2` [II-40, N2-(3-Aminocarbonylphenyl)-N4-(2,2-dimethyl-3-oxo-4H-5-pyrido[1,4]oxazin-6-yl)-5-methyl-2,4-pyrimidinediamine]: 0.163 µM; `Cc1cnc(Nc2cccc(C(N)=O)c2)nc1Nc1ccc2c(c1)NC(=O)CS2` [II-44, N2-(3-Aminocarbonylphenyl)-N4-(3,4-dihydro-2H-3-oxo-4H-benz[1,4]thiazin-6-yl)-5-methyl-2,4-pyrimidinediamine]: 0.189 µM; `CNC(=O)COc1cccc(Nc2ncc(F)c(Nc3ccc4c(c3)N(CC#N)C(=O)CS4)n2)c1` [II-12, N4-(4-Cyanomethyl-3-oxo-2H-benzo[1,4]thiazin-6-yl)-5-fluoro-N2-[3-(N-methylaminocarbonylmethyleneoxy)phenyl]-2,4-pyrimidinediamine]: 0.0362 µM.
On the same count and under the same terms, the same measure for `Cc1cnc(Nc2cccc(C(N)=O)c2)nc1Nc1ccc2c(n1)N(C)C(=O)C(C)(C)O2` [II-43, N2-(3-Aminocarbonylphenyl)-5-methyl-N4-(2,2,4-trimethyl-3-oxo-5-pyrido[1,4]oxazin-6-yl)-2,4-pyrimidinediamine]: 0.229 µM; for `CN1CCN(C(=O)c2cccc(Nc3ncc(F)c(Nc4ccc(OCC#N)cc4)n3)c2)CC1` [Compound I-40]: 0.567 µM; for `CNC(=O)COc1cccc(Nc2ncc(F)c(Nc3ccc4c(c3)N(Cc3ccccn3)C(=O)CO4)n2)c1` [II-14, 5-Fluoro-N2-[3-(N-methylaminocarbonylmethyleneoxy)phenyl]-N4-[3-oxo-4-(2-pyridinylmethyl)-2H-benzo[1,4]oxazin-6-yl]-2,4-pyrimidinediamine]: 0.672 µM.
Still for that read-out and setting: next, `CNC(=O)COc1cccc(Nc2ncc(F)c(Nc3ccc4c(c3)N(CC#N)C(=O)CO4)n2)c1` [II-11, N4-(4-Cyanomethyl-3-oxo-2H-benzo[1,4]oxazin-6-yl)-5-fluoro-N2-[3-(N-methylaminocarbonylmethyleneoxy)phenyl]-2,4-pyrimidinediamine]: 0.028 µM.
Consider “N4-(3-Chloro-4-methoxyphenyl)-N2-[1-(2-(N-morpholinyl)ethylaminocarbonyl)-1H-indol-6-yl]-2,4-pyrimidinediamine [VI-3]”, for which the IC50 came out at 0.645 µM.
Same read-out and setting: next, `CNC(=O)COc1cc(Nc2ncc(C)c(Nc3ccc4c(n3)NC(=O)C(C)(C)O4)n2)cc(OC)c1OC` [II-35, N2-[3,4-Dimethoxy-5-(N-methylaminocarbonylmethoxy)phenyl]-N4-(2,2-dimethyl-3-oxo-4H-5-pyrido[1,4]oxazin-6-yl)-5-methyl-2,4-pyrimidinediamine]: 0.0873 µM; `Cc1noc(COc2ccc(N(C)c3nc(Nc4cccc(C#N)c4)ncc3F)cc2)n1` [Compound I-17, N2-(3-Cyanophenyl)-5-fluoro-N4-methyl-N4-[4-((3-methyl-1,2,4-oxadiazol-5-yl)methyleneoxy)phenyl]-2,4-pyrimidinediamine]: 1.78 µM; “N4-(4-Chloro-3-methoxyphenyl)-N2-[1-(2-(N-morpholinyl)ethylaminocarbonyl)-1H-indol-6-yl]-2,4-pyrimidinediamine [VI-4]”: 0.889 µM.
